In PubChem BioAssay (NCI):
“And” between values parts separate entries of the source, which are not always exact repeats. Equal entries are not always repeated.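 96-well plates; 48 h exposure; 5 concentrations. Endpoints by linear interpolation between flanking doses. Not reached: highest tested concentration assigned. At the GI50, growth is halved. TGI marks complete inhibition of growth.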

What was measured:
Assay in all cases: NCI anticancer screen, dose series, 48 h
[1] = system: NCI-H226 lung
[2] = system: CCRF-CEM leukemia
[3] = system: UACC-257 melanoma
[4] = system: MALME-3M melanoma
[5] = system: IGROV1 ovarian
[6] = system: UACC-62 melanoma
[7] = system: SK-MEL-5 melanoma
[8] = system: RPMI-8226 leukemia

Row | Structure (SMILES) | GI50 [1] | TGI [1] | GI50 [2] | TGI [2] | GI50 [3] | TGI [3] | GI50 [4] | TGI [4] | GI50 [5] | TGI [5] | GI50 [6] | TGI [6] | GI50 [7] | TGI [7] | TGI [8] | GI50 [8]
1 | COc1ccc2c(c1)c(-c1nc(-c3cn(C)c4ccncc34)cs1)cn2C | 1.83 µM | 3.75 µM | 2.15 µM | 6.05 µM | 1.9 µM | 3.6 µM | 2.02 µM | 3.58 µM | 1.92 µM | 3.65 µM | 2.09 µM | 4.78 µM | 1.52 µM | 2.85 µM | – | –
2 | O=C(O)/C=C/c1ccc(Oc2ccccc2C(=O)O)o1 | – | – | – | > 10 µM | – | > 10 µM | – | > 10 µM | – | > 10 µM | – | > 10 µM | – | > 10 µM | > 10 µM | –
3 | COc1ccc(NC(=O)Oc2ccc3c(C)cc(=O)oc3c2)c(OC)c1 (tested in a mixture with another compound) | – | > 100 µM | – | – | – | – | – | > 100 µM | – | > 100 µM | – | > 100 µM | – | > 100 µM | > 100 µM | –
4 | NC(=O)CC1OC(=O)Cc2cc3c(c(O)c21)C(=O)c1c(O)cccc1C3=O (stereo unspecified) | – | > 100 µM | – | > 100 µM | – | > 100 µM | – | > 100 µM | – | > 100 µM | – | > 100 µM | – | > 100 µM | – | –
5 | Cc1ccc(S(=O)(=O)ON2C(=O)c3cccc4cc([N+](=O)[O-])cc(c34)C2=O)cc1 | – | > 100 µM | – | – | – | > 100 µM | – | > 100 µM | – | > 100 µM | – | > 100 µM | – | > 100 µM | > 100 µM | –
6 | CCN1CCN(CCNc2nccc(-c3c(-c4ccc(F)c(O)c4)nc4occn34)n2)S1(=O)=O | 3.8 µM | > 100 µM | 2.2 µM | > 100 µM | 5.15 µM | > 100 µM | 3.8 µM | > 100 µM | 4.06 µM | > 100 µM | 1.5 µM | 6.56 µM | 2.23 µM | 5.89 µM | – | –
7 | O=C1Nc2c(Cl)cc(Cl)cc2/C1=N/N=C/c1ccco1 | – | 59.2 µM | – | > 100 µM | – | > 100 µM | – | > 100 µM | – | > 100 µM | – | 53.6 µM | – | > 100 µM | – | –
8 | Oc1ccccc1-c1nn(CNc2ccc(Cl)cc2)c(=S)o1 | 14.1 µM | > 100 µM | > 100 µM | > 100 µM | 20.6 µM | 47.9 µM | – | – | > 100 µM | > 100 µM | 0.633 µM | > 100 µM | 2.31 µM | > 100 µM | > 100 µM | > 100 µM
9 | C[C@@H]1C[C@H](N)C[C@H](c2ccncc2NC(=O)c2ccc(F)c(-c3c(F)cccc3F)n2)C1 | – | – | – | – | – | – | 10.5 µM and > 10 µM | 24.3 µM and > 10 µM | 5.05 µM and 8.68 µM | 21 µM and > 10 µM | 14.3 µM and > 10 µM | 28.2 µM and > 10 µM | 13 µM and 1.58 µM | 26.2 µM and 5.01 µM | 11.4 µM and > 10 µM | 0.592 µM and 0.939 µM
10 | CSc1cc([C@@H]2C[C@H]2c2ccc(Cl)cc2)on1 | 11.4 µM | 36.8 µM | 20.3 µM | 47.2 µM | 15.8 µM | 35.6 µM | – | – | 14.8 µM | > 100 µM | 11.3 µM | 24.7 µM | – | – | 44.8 µM | 22.7 µM
11 | CC1SC(c2ccccc2Cl)N(NC(=O)C(O)c2ccccc2)C1=O (stereo unspecified) | > 100 µM | > 100 µM | > 100 µM | > 100 µM | 49.5 µM | > 100 µM | – | – | 73.1 µM | > 100 µM | 45 µM | > 100 µM | 63.9 µM | > 100 µM | > 100 µM | 45 µM
12 | C=CCC1(C(=O)OC)CCC/C(=N\O)C1 (stereo unspecified) | – | – | – | > 10 µM | – | > 10 µM | – | > 10 µM | – | > 10 µM | – | > 10 µM | – | > 10 µM | > 10 µM | –
13 | [N-]=[N+]=NCN1C(=O)C2C3C=CC(C2C1=O)C1C2C(=O)N(CN=[N+]=[N-])C(=O)C2C31 (stereo unspecified) | – | – | – | – | – | > 100 µM | – | – | – | > 100 µM | – | > 100 µM | – | > 100 µM | > 100 µM | –
14 | O=C1c2ccccc2C(=O)N1CCc1ncc(-c2ccccc2)[nH]1 | – | > 100 µM | – | > 100 µM | – | > 100 µM | – | > 100 µM | – | > 100 µM | – | > 100 µM | – | > 100 µM | – | –
15 | COC(=O)/C=C1/SC(=Nc2cccc(Cl)c2)N(CCc2c[nH]c3ccc(O)cc23)C1=O | 1.65 µM | 3.08 µM | 0.931 µM | 5.27 µM | 1.96 µM | 3.99 µM | – | – | 2 µM | 4.35 µM | 1.68 µM | 3.47 µM | 1.99 µM | 4.19 µM | 3.98 µM | 1.24 µM
16 | Nc1ncc(-c2ccc3ncnc(Nc4cccc(Cl)c4)c3c2)cn1 | 0.294 µM | – | 1.85 µM | > 100 µM | > 100 µM | > 100 µM | – | – | 0.0206 µM | 0.223 µM | 2.69 µM | > 100 µM | 2.31 µM | > 100 µM | – | 0.206 µM
17 | CC1=C([Te]c2ccccc2)C(=O)c2ccccc2C1=O | – | – | 0.312 µM | 3.3 µM | 2.23 µM | 5.92 µM | 1.79 µM | 3.56 µM | 0.5 µM | 1.82 µM | 1.43 µM | 3.8 µM | 0.799 µM | 2.03 µM | 1.31 µM | 0.275 µM
